Source: ChEMBL document CHEMBL5728495, “Substituted isoindolin-1-ones and 2,3-dihydro-1h-pyrrolo[3,4-c]pyridin-1-ones as HPK1 antagonists” (2021)

These molecules were tested against Mitogen-activated protein kinase kinase kinase kinase 1 (Homo sapiens, UniProt Q92918) (assay: Biochemical Enzyme Assay: HPK1 biochemical enzyme assay: HPK1 enzyme inhibition was measured using a microfluidic mobility shift assay. […] Test compounds were titrated in ten point curves (top final assay concentration 3 μM), and preincubated with enzyme/substrate mix for 30 min prior to initiation of the reaction by addition of ATP (1 mM final concentration) and substrate (1 μM final concentration; Carna Biosciences) diluted in assay buffer supplemented by MgCl2 (final assay concentration of 5 mM). Following 60 min incubation at RT, the reaction was terminated by addition of 60 µl/well termination buffer (Carna Biosciences) and signal determination using aCaliper EZ Reader (Perkin Elmer, UK).).
Mitogen-activated protein kinase kinase kinase kinase 1, sequence (Q92918 whole entry): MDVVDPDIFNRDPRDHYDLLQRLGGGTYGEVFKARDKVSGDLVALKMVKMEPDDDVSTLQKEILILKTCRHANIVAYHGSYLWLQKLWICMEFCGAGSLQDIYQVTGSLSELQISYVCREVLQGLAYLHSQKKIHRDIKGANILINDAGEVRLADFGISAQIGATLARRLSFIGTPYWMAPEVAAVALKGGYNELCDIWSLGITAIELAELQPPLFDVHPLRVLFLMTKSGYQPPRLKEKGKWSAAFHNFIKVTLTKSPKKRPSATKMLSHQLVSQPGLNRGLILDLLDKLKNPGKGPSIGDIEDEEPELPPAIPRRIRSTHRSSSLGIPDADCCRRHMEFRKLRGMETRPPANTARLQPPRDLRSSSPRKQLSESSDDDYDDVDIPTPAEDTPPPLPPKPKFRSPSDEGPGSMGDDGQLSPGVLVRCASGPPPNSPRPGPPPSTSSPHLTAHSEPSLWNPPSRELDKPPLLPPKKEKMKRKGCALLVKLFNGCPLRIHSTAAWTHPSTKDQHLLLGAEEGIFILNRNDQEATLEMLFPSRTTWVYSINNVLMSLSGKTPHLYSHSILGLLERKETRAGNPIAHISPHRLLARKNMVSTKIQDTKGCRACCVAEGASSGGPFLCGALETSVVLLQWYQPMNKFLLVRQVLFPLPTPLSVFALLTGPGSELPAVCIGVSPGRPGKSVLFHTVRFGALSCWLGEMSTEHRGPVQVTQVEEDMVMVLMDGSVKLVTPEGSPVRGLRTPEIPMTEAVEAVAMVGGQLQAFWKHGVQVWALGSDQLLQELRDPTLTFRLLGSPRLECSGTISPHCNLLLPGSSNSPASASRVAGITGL

Row | Structure (SMILES) | IC50 [nM]
1 | Cn1ccc2c(-c3ccc(Nc4ccc(N5CCO[C@H](C(C)(C)O)C5)cn4)c4c3CNC4=O)ncnc21 | < 100
2 | Cn1ccc2c(-c3ncc(Nc4ccc(N5CCOCC5)cn4)c4c3CNC4=O)ccnc21 | < 100
3 | CN(C)C[C@H]1CN(c2ccc(Nc3cnc(-c4ccnc5c4ccn5C)c4c3C(=O)NC4)nc2)CCO1 | < 100
4 | CN(C)CCc1nc(Nc2ccc(-c3cnc4cc(F)ccn34)c3c2C(=O)NC3)ccc1[C@H]1CCOC1 | < 100
5 | CN(C)CCc1nc(Nc2ccc(-c3cnc4cc(F)ccn34)c3c2C(=O)NC3)ccc1[C@@H]1CCOC1 | < 100
6 | C[C@@H]1CCn2ncc(-c3ccc(Nc4ccc(N5CCN(C)CC5)cn4)c4c3CNC4=O)c2C1 | < 100
7 | COc1cc(Nc2ccc(-c3ccnc4c3ccn4C)c3c2C(=O)NC3)ncc1N1CCC(O)CC1 | < 100
8 | O=C1NCc2c(-c3cnc4ccccn34)ncc(Nc3ccc(N4CC[C@@H](F)[C@H](O)C4)cn3)c21 | < 100
9 | Cn1ccc2c(-c3ccc(Nc4ccc(N5CCO[C@@H](C(C)(C)O)C5)cn4)c4c3CNC4=O)ncnc21 | < 100
10 | CCN(C)Cc1nc(Nc2ccc(-c3cnc4cc(F)ccn34)c3c2C(=O)NC3)ccc1[C@H]1CCOC1 | < 100
11 | O=C1NCc2c(-c3cnc4ccccn34)ncc(Nc3ccc(C4(O)CCOCC4)cn3)c21 | < 100
12 | Cc1cc(Nc2ccc(N3CCC(O)CC3)cn2)c2c(c1-c1cccc3c1ccn3C)CNC2=O | < 100
13 | CN1CC[C@H](c2ccc(Nc3cnc(-c4ccnc5c4ccn5C)c4c3C(=O)NC4)nc2)CC1=O | < 100
14 | Cn1ccc2c(-c3ncc(Nc4ccc(N5CCC(C)(O)CC5)cn4)c4c3CNC4=O)ccnc21 | < 100
15 | CN(C)C[C@@H]1CN(c2ccc(Nc3cnc(-c4ccnc5c4ccn5C)c4c3C(=O)NC4)nc2)CCO1 | < 100
16 | O=C1NCc2c(-c3cnc4cc(C(F)F)ccn34)ccc(Nc3ccc([C@]4(O)CCOC4)cn3)c21 | < 100
17 | CN1CC[C@@H](c2ccc(Nc3cnc(-c4ccnc5c4ccn5C)c4c3C(=O)NC4)nc2)CC1=O | < 100

The next lines start with the values.

Row | IC50 [nM] | Structure (SMILES)
18 | < 100 | COCC1(O)CCN(c2ccc(Nc3ccc(-c4cnc5cc(F)ccn45)c4c3C(=O)NC4)nc2)CC1
19 | < 100 | O=C1NCc2c(-c3cnc4cc(F)ccn34)ccc(Nc3ccc([C@]4(O)CCOC4)cn3)c21
20 | < 100 | Cc1ccn2c(-c3ccc(Nc4ccc(N5CCC[C@](O)(CN(C)C)C5)cn4)c4c3CNC4=O)cnc2c1F
21 | < 100 | CN(C)C[C@H]1CN(c2ccc(Nc3ccc(-c4cnc5cc(Cl)ccn45)c4c3C(=O)NC4)nc2)CCO1
22 | < 100 | CC(C)(NC1CC1)C1CN(c2ccc(Nc3ccc(-c4cnc5cc(F)ccn45)c4c3C(=O)NC4)nc2)CCO1 (stereo unspecified)
23 | < 100 | O=C1NCc2c(-c3cnc4cc(F)ccn34)ccc(Nc3ccc([C@@]4(O)CCOC4)cn3)c21
24 | < 100 | COC1(CO)CCN(c2ccc(Nc3ccc(-c4cnc5cc(F)ccn45)c4c3C(=O)NC4)nc2)CC1
25 | < 100 | Cc1ccn2c(-c3ccc(Nc4ccc(N5CCC[C@@](O)(CN(C)C)C5)cn4)c4c3CNC4=O)cnc2c1F
26 | < 100 | CN(C)C1(c2ccc(Nc3ccc(-c4cnc5cc(F)ccn45)c4c3C(=O)NC4)nc2)CCOCC1
